# Key:
# A. flavus ATCC 204304 = test: Broth microdilution antifungal susceptibility, NCCLS M38-A; assay type: cell-based, Aspergillus flavus; settings: minimal concentration inhibiting >95% growth; average of at least two assays (except I-l and I-x)
# A. fumigatus ATCC 204305 = test: as above; assay type: cell-based, Aspergillus fumigatus; settings: minimal concentration inhibiting >95% growth; average of at least two assays (except I-l and I-x)
# Blastomyces dermatitidis = test: as above; assay type: cell-based
# Histoplasma capsulatum = assay type: cell-based
# Fusarium solani = test: Broth microdilution antifungal susceptibility, NCCLS M38-A; assay type: cell-based; settings: strain 96-1; 50% growth inhibition; range = minimum and maximum of multiple assays
# S. apiospermum = test: as above; assay type: cell-based, Scedosporium apiospermum
# [1] = system: Trichophyton mentagrophytes; test: Dermatophyte broth microdilution, NCCLS M38-A; assay type: cell-based
# Microsporum gypseum = test: Dermatophyte broth microdilution, NCCLS M38-A; assay type: cell-based
# [2] = system: Trichophyton interdigitale; test: Dermatophyte broth microdilution, NCCLS M38-A; assay type: cell-based
# Epidermophyton floccosum = test: Dermatophyte broth microdilution, NCCLS M38-A; assay type: cell-based
# Trichophyton rubrum = test: Dermatophyte broth microdilution, NCCLS M38-A; assay type: cell-based
# Microsporum canis = test: Dermatophyte broth microdilution, NCCLS M38-A; assay type: cell-based
# Cryptococcus neoformans = test: Broth microdilution antifungal susceptibility, NCCLS M38-A; settings: 50% growth inhibition, range = minimum and maximum of multiple assays
# Candida albicans = settings: 50% growth inhibition, range = minimum and maximum of multiple assays
structure (smiles),measurement,setting,value
"CC[C@H]1O[C@@H](/C(C)=C/[C@H](C)/C=C/[C@H]2[C@@H](C)[C@@H]2/C=C/[C@@H]2O[C@H](CC(=O)O)C[C@H](N(CC)CC)[C@H]2O)CC=C1C [I-z, (5S,6R)-5-(diethylamino)-6-hydroxypolyangioic acid]",MIC0 A. flavus ATCC 204304,A. flavus ATCC 204304,2.2 µg/mL
same,MIC0 A. fumigatus ATCC 204305,A. fumigatus ATCC 204305,2.1 µg/mL
same,MIC B. dermatitidis Gu,Blastomyces dermatitidis,>12.5 µg/mL
same,MIC B. dermatitidis Kr,Blastomyces dermatitidis,>12.5 µg/mL
same,MIC B. dermatitidis V,Blastomyces dermatitidis,>12.5 µg/mL
same,MIC H. capsulatum G217B,Histoplasma capsulatum,<0.19 µg/mL
same,MIC H. capsulatum GS20,Histoplasma capsulatum,<0.19 µg/mL
same,MIC F. solani 96-1,Fusarium solani,>16 µg/mL
same,MIC S. apiospermum 94-54,S. apiospermum,>16 µg/mL
same,MIC S. apiospermum 98-38,S. apiospermum,>16 µg/mL
same,MIC S. apiospermum 98-89,S. apiospermum,0.25 to 0.5 µg/mL
same,MIC0 Tm,[1],4 µg/mL
same,MIC0 Mg,Microsporum gypseum,1.58 µg/mL
same,MIC0 Ti,[2],0.79 µg/mL
same,MIC0 Ef,Epidermophyton floccosum,4 µg/mL
same,MIC0 Tr,Trichophyton rubrum,1.25 µg/mL
same,MIC0 Mc,Microsporum canis,2 µg/mL
same,MIC C. neoformans 97-14,Cryptococcus neoformans; strain 97-14,0.5 to 1 µg/mL
same,MIC C. neoformans 11239,Cryptococcus neoformans; strain 11239,0.25 to 0.5 µg/mL
same,MIC C. neoformans 11240,Cryptococcus neoformans; strain 11240,0.5 µg/mL
same,MIC C. albicans 24433,Candida albicans; strain 24433,>32 µg/mL
same,MIC C. albicans 90028,Candida albicans; strain 90028,>32 µg/mL

# Source: patent US20070015823A1, “Ambruticin VS compounds” (priority 2004, published 2007)
